Results taken from US12435087B2, “Modulators of DCN-1 and methods of use thereof” (Cellarity, Inc., priority 2023, dated 2025).
Where two headings read alike, the source gives them in different places.

Biological target: DCN1 (DCUND1) protein PONY domain (Homo sapiens (Human), UniProt Q96GG9)
Assay: TR-FRET assay (binding to DCN-1, displacement of FAM-labeled probe)
In short: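 Compounds read at 1, 5 and 24 h, 0.1% final DMSO, by TR-FRET between terbium-streptavidin on biotinylated DCN1 PONY domain (E. coli) and a FAM-tagged non-covalent inhibitor probe. Two setups used, 5 nM protein with 20 nM labelled probe, or 0.31 nM protein with 100 nM labelled plus 800 nM unlabelled probe; buffer had TritonX and 200 mM NaCl. % activity relative to high (with probe) and low (without probe) controls.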

[1] = 24 hr after treatment with compound, read-out: TR FRET IC50 24 hr
[2] = TR FRET IC50 1 hr (nM), 1 hr after treatment with compound
[3] = read-out: TR FRET IC50 1 hr, 1 hr after treatment with compound

Sequence of DCN1 (DCUND1) protein PONY domain (Q96GG9 60-248): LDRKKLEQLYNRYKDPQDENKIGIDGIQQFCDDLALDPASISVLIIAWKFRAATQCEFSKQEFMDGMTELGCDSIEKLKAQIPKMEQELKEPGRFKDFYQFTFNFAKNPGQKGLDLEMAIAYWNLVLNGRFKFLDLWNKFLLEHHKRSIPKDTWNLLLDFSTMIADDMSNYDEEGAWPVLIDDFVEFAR

## C/C=C(\CN1CCN(C2COC2)CC1)C(=O)N(C)c1cccc([C@@H]2c3cnn(-c4ccccc4)c3N(CC)C(=O)[C@H]2NC(=O)c2csc(C(F)(F)F)n2)c1 [Compound I-301, N-((4R,5S)-7-ethyl-4-(3-((E)-N-methyl-2-((4-(oxetan-3-yl)piperazin-1-yl)methyl)but-2-enamido)phenyl)-6-oxo-1-phenyl-4,5,6,7-tetrahydro-1H-pyrazolo[3,4-b]pyridin-5-yl)-2-(trifluoromethyl)thiazole-4-carboxamide]
[1]
  IC50: 200 to 1000 nM
[2]
  IC50: 1000 to 3000 nM

## C/C=C(\CN1CC2(COC2)C1)C(=O)NCc1cccc([C@@H]2c3cnn(-c4ccccc4)c3N(CC)C(=O)[C@H]2NC(=O)c2ccn(C(F)(F)F)n2)c1 [Compound I-302]
[1]
  IC50: ≤ 200 nM
[2]
  IC50: 200 to 1000 nM

## C=C(CN1CCC1)C(=O)NCc1cccc([C@@H]2c3c(C)nn(-c4ccccc4)c3N(CC)C(=O)[C@H]2NC(=O)c2cccc(C(F)(F)F)c2)c1 [Compound I-303]
[1]
  IC50: ≤ 200 nM
[3]
  IC50: ≤ 200 nM

## C=C(CN1CC2(COC2)C1)C(=O)NCc1cccc([C@H]2c3c(C)nn(-c4ccccc4)c3N(CC)C(=O)[C@H]2NC(=O)c2cccc(C(F)(F)F)c2)c1 [Compound I-304]
[1]
  IC50: 200 to 1000 nM
[2]
  IC50: 1000 to 3000 nM

## CCN1C(=O)[C@@H](NC(=O)c2cccc(C(F)(F)F)c2)[C@H](c2cccc(CNC/C=C/C(=O)OC(C)(C)C)c2)c2cnn(-c3ccccc3)c21 [Compound I-306, tert-butyl (E)-4-((3-((4R,5S)-7-ethyl-6-oxo-1-phenyl-5-(3-(trifluoromethyl)benzamido)-4,5,6,7-tetrahydro-1H-pyrazolo[3,4-b]pyridin-4-yl)benzyl)amino)but-2-enoate]
[1]
  IC50: 200 to 1000 nM
[2]
  IC50: 1000 to 3000 nM

## CCN1C(=O)[C@@H](NC(=O)c2cccc(C(F)(F)F)c2)[C@H](c2cccc(CNC/C=C/C(=O)N3CCCC3)c2)c2cnn(-c3ccccc3)c21 [Compound I-307]
[1]
  IC50: 1000 to 3000 nM
[2]
  IC50: 1000 to 3000 nM

## C=C(CN1CCOCC1)C(=O)NCc1cccc([C@@H]2c3cnn(-c4ccccc4)c3N(CC)C(=O)[C@H]2NC(=O)c2ccn(C(F)F)n2)c1 [Compound I-308]
[1]
  IC50: ≤ 200 nM
[2]
  IC50: 200 to 1000 nM

## C/C=C(\CN1CCC1)C(=O)NCc1cccc([C@@H]2c3cnn(-c4ccccc4)c3N(CC)C(=O)[C@H]2NC(=O)c2ccn(C3CC3)n2)c1 [Compound I-309]
[1]
  IC50: ≤ 200 nM
[2]
  IC50: ≤ 200 nM

## C=C(C(=O)NCc1cccc([C@@H]2c3cnn(-c4ccccc4)c3N(CC)C(=O)[C@H]2NC(=O)c2nccc(C(F)(F)F)n2)c1)C(C)N1CCN(C2COC2)CC1 (stereo partly drawn) [Compound I-310]
[1]
  IC50: ≤ 200 nM
[3]
  IC50: ≤ 200 nM

## C=C(CN(C)C1COC1)C(=O)NCc1cccc([C@@H]2c3c(C)nn(-c4ccccc4)c3N(CC)C(=O)[C@H]2NC(=O)c2cccc(C(F)(F)F)c2)c1 [Compound I-312]
[1]
  IC50: ≤ 200 nM
[3]
  IC50: ≤ 200 nM

## C=C(C(=O)N(C)Cc1cccc([C@@H]2c3cnn(-c4ccccc4)c3N(CC)C(=O)[C@H]2NC(=O)c2ccn(C(F)(F)F)n2)c1)C(C)N(C)C1COC1 (stereo partly drawn) [Compound I-313]
[1]
  IC50: ≤ 200 nM
[2]
  IC50: 1000 to 3000 nM

## C/C=C(\CN1CCC1)C(=O)NCc1cccc([C@@H]2c3cnn(-c4ccccc4)c3N(CC)C(=O)[C@H]2NC(=O)c2nccc(C(F)(F)F)n2)c1 [Compound I-314]
[1]
  IC50: ≤ 200 nM
[2]
  IC50: 200 to 1000 nM

## C=C(CN1CC2CC(C1)O2)C(=O)NCc1cccc([C@@H]2c3cnn(-c4ccccc4)c3N(CC)C(=O)[C@H]2NC(=O)c2ccn(C(F)(F)F)n2)c1 [Compound I-315]
[1]
  IC50: ≤ 200 nM
[3]
  IC50: ≤ 200 nM

## C=C(C(=O)NCc1cccc([C@@H]2c3cnn(-c4ccccc4)c3N(CC)C(=O)[C@H]2NC(=O)c2cccc(C(F)(F)F)c2)c1)C(C)N1CCN(C2COC2)CC1 (stereo partly drawn) [Compound I-317]
[1]
  IC50: ≤ 200 nM
[3]
  IC50: ≤ 200 nM

## C=C(CN(C)C1COC1)C(=O)N(C)Cc1cccc([C@@H]2c3cnn(-c4ccccc4)c3N(CC)C(=O)[C@H]2NC(=O)c2csc(C(F)(F)F)n2)c1 [Compound I-318]
[1]
  IC50: ≤ 200 nM
[2]
  IC50: 200 to 1000 nM

## CCN1C(=O)[C@@H](NC(=O)c2cccc(C(F)(F)F)c2)[C@H](c2cncc(NC(=O)C3=CCC3)c2)c2cnn(-c3ccccc3)c21 [Compound I-319]
[1]
  IC50: 200 to 1000 nM
[2]
  IC50: 1000 to 3000 nM

## CCN1C(=O)[C@@H](NC(=O)c2cccc(C(F)(F)F)c2)[C@H](c2cncc(NC(=O)/C=C/CN(C)C)c2)c2cnn(-c3ccccc3)c21 [Compound I-320]
[1]
  IC50: 200 to 1000 nM
[2]
  IC50: 1000 to 3000 nM

## C/C=C(\CN1CC2(COC2)C1)C(=O)N(C)Cc1cccc([C@@H]2c3cnn(-c4ccccc4)c3N(CC)C(=O)[C@H]2NC(=O)c2ccn(C(F)(F)F)n2)c1 [Compound I-321]
[1]
  IC50: 1000 to 3000 nM
[2]
  IC50: 1000 to 3000 nM

## C/C=C(\CN(C)C1COC1)C(=O)NCc1cccc([C@@H]2c3cnn(-c4ccccc4)c3N(CC)C(=O)[C@H]2NC(=O)c2nccc(C(F)(F)F)n2)c1 [Compound I-322]
[1]
  IC50: ≤ 200 nM
[2]
  IC50: 1000 to 3000 nM

## CCN1C(=O)[C@@H](NC(=O)c2ccn(C(F)(F)F)n2)[C@H](c2cccc(NC(=O)C3=CCN(C)C3)c2)c2c(C)nn(-c3ccccc3)c21 [Compound I-323]
[1]
  IC50: ≤ 200 nM
[2]
  IC50: 200 to 1000 nM

## C=C(C(=O)NCc1cccc([C@@H]2c3cnn(-c4ccccc4)c3N(CC)C(=O)[C@H]2NC(=O)c2nccc(C(F)(F)F)n2)c1)C(C)N1CC2CC(C1)O2 (stereo partly drawn) [Compound I-324]
[1]
  IC50: ≤ 200 nM
[3]
  IC50: ≤ 200 nM

## C=C(C(=O)NCc1cccc([C@@H]2c3cnn(-c4ccccc4)c3N(CC)C(=O)[C@H]2NC(=O)c2ccn(C3CC3)n2)c1)C(C)N1CCC12COC2 (stereo partly drawn) [Compound I-325]
[2]
  IC50: 200 to 1000 nM

## C/C=C(\CN1CCOCC1)C(=O)N(C)Cc1cccc([C@@H]2c3cnn(-c4ccccc4)c3N(CC)C(=O)[C@H]2NC(=O)c2nccc(C(F)(F)F)n2)c1 [Compound I-326]
[1]
  IC50: 1000 to 3000 nM
[2]
  IC50: 1000 to 3000 nM

## C=C(C(=O)NCc1cccc([C@@H]2c3cnn(-c4ccccc4)c3N(CC)C(=O)[C@H]2NC(=O)c2ccn(C3CC3)n2)c1)C(C)N(C)C1COC1 (stereo partly drawn) [Compound I-327]
[1]
  IC50: ≤ 200 nM
[3]
  IC50: ≤ 200 nM

## CCN1C(=O)[C@@H](NC(=O)c2cccc(C(F)(F)F)c2)[C@@H](c2cncc(NC(=O)/C=C/CN(C)C)c2)c2cnn(-c3ccccc3)c21 [Compound I-329]
[1]
  IC50: 1000 to 3000 nM
[2]
  IC50: 1000 to 3000 nM

## CCN1C(=O)[C@@H](NC(=O)c2nccc(C(F)(F)F)n2)[C@H](c2cccc(C(=O)N3C[C@@H](F)C[C@H]3C#N)c2)c2cnn(-c3ccccc3)c21 [Compound I-330]
[1]
  IC50: 1000 to 3000 nM
[2]
  IC50: 1000 to 3000 nM

## C=C(Cn1cc(F)cn1)C(=O)NCc1cccc([C@@H]2c3cnn(-c4ccccc4)c3N(CC)C(=O)[C@H]2NC(=O)c2nccc(C(F)(F)F)n2)c1 [Compound I-331]
[1]
  IC50: 200 to 1000 nM
[2]
  IC50: 1000 to 3000 nM

## C=C(CN1CCC12COC2)C(=O)NCc1cccc([C@@H]2c3cnn(-c4ccccc4)c3N(CC)C(=O)[C@H]2NC(=O)c2cccc(C(F)(F)F)c2)c1 [Compound I-332]
[1]
  IC50: ≤ 200 nM
[3]
  IC50: ≤ 200 nM

## C=C(CN1CCN(C2COC2)CC1)C(=O)NCc1cccc([C@@H]2c3cnn(-c4ccccc4)c3N(CC)C(=O)[C@H]2NC(=O)c2nccc(C(F)(F)F)n2)n1 [Compound I-333]
[1]
  IC50: ≤ 200 nM
[2]
  IC50: 200 to 1000 nM

## C=C(C(=O)NCc1cccc([C@@H]2c3cnn(-c4ccccc4)c3N(CC)C(=O)[C@H]2NC(=O)c2ccn(CCF)n2)c1)C(C)N(C)C1COC1 (stereo partly drawn) [Compound I-334]
[1]
  IC50: ≤ 200 nM
[2]
  IC50: 200 to 1000 nM

## CCC(=O)NCc1cccc([C@@H]2c3cnn(-c4ccccc4)c3N(CC)C(=O)[C@H]2NC(=O)c2ccn(C(F)(F)F)n2)c1 [Compound I-335]
[1]
  IC50: 200 to 1000 nM
[2]
  IC50: 1000 to 3000 nM

## C/C=C(\CN1CC2CC(C1)O2)C(=O)Nc1cccc([C@@H]2c3cnn(-c4ccccc4)c3N(CC)C(=O)[C@H]2NC(=O)c2nccc(C(F)(F)F)n2)c1 [Compound I-337, N-((4R,5S)-4-(3-((E)-2-((6-oxa-3-azabicyclo[3.1.1]heptan-3-yl)methyl)but-2-enamido)phenyl)-7-ethyl-6-oxo-1-phenyl-4,5,6,7-tetrahydro-1H-pyrazolo[3,4-b]pyridin-5-yl)-4-(trifluoromethyl)pyrimidine-2-carboxamide]
[1]
  IC50: ≤ 200 nM
[2]
  IC50: 200 to 1000 nM

## C=C(CN1CCOCC1)C(=O)NCc1cccc([C@@H]2c3cnn(-c4ccccc4)c3N(CC)C(=O)[C@H]2NC(=O)c2ccn(C)n2)c1 [Compound I-338]
[1]
  IC50: ≤ 200 nM
[2]
  IC50: 1000 to 3000 nM

## CCN1C(=O)[C@@H](NC(=O)c2cccc(C(F)(F)F)c2)[C@H](c2cccc(CN(C)C/C=C/C(=O)N(C)C)c2)c2cnn(-c3ccccc3)c21 [Compound I-339]
[1]
  IC50: 1000 to 3000 nM
[2]
  IC50: 1000 to 3000 nM

## C=C(CN1CCOCC1)C(=O)NCc1cccc([C@@H]2c3cnn(-c4ccccc4)c3N(CC)C(=O)[C@H]2NC(=O)c2ccn(CC#N)n2)c1 [Compound I-340, 1-(cyanomethyl)-N-((4R,5S)-7-ethyl-4-(3-((2-(morpholinomethyl)acrylamido)methyl)phenyl)-6-oxo-1-phenyl-4,5,6,7-tetrahydro-1H-pyrazolo[3,4-b]pyridin-5-yl)-1H-pyrazole-3-carboxamide]
[1]
  IC50: 200 to 1000 nM
[2]
  IC50: 1000 to 3000 nM

## C/C=C(\CN1CCC1)C(=O)NCc1cccc([C@@H]2c3cnn(-c4ccccc4)c3N(CC)C(=O)[C@H]2NC(=O)c2cccc(C(F)(F)F)c2)c1 [Compound I-341]
[1]
  IC50: ≤ 200 nM
[2]
  IC50: 200 to 1000 nM

## C=C(C(=O)N(C)Cc1cccc([C@@H]2c3cnn(-c4ccccc4)c3N(CC)C(=O)[C@H]2NC(=O)c2ccn(C3CC3)n2)c1)C(C)N1CCC12COC2 (stereo partly drawn) [Compound I-343]
[1]
  IC50: 200 to 1000 nM
[2]
  IC50: 1000 to 3000 nM

## C=C(C(=O)NCc1cccc([C@@H]2c3cnn(-c4ccccc4)c3N(CC)C(=O)[C@H]2NC(=O)c2ccn(C(F)(F)F)n2)c1)C(C)N1CCC12COC2 (stereo partly drawn) [Compound I-344]
[1]
  IC50: ≤ 200 nM
[2]
  IC50: 200 to 1000 nM
